Results on 28 molecules are retold here after US10544150B2, “NK-3 receptor selective antagonist compounds, pharmaceutical composition and methods for use in NK-3 receptors mediated disorders” (Ogeda SA, priority 2010, dated 2020).

Broadly, the Ki is the equilibrium dissociation constant of an inhibitor or competing ligand from its target.

Structures are written as SMILES. A value given as a limit tells only on which side of the number the result lay.

The experiment deals with human NK-3 receptor (Homo sapiens (Human), UniProt P29371). The experiment is described as follows: 3H-SB222200 binding competition assay with human NK-3 receptor. The conditions noted are these: 3H-SB222200 displacement, CHO cell membranes expressing human NK3 receptor; read-out: Ki range. How it is done: The affinity of compounds of the invention for the tachykinin receptors was determined by measuring the ability of the compounds of the invention to displace a radiolabeled ligand from its specifics binding site.
Chain of human NK-3 receptor (P29371 whole entry): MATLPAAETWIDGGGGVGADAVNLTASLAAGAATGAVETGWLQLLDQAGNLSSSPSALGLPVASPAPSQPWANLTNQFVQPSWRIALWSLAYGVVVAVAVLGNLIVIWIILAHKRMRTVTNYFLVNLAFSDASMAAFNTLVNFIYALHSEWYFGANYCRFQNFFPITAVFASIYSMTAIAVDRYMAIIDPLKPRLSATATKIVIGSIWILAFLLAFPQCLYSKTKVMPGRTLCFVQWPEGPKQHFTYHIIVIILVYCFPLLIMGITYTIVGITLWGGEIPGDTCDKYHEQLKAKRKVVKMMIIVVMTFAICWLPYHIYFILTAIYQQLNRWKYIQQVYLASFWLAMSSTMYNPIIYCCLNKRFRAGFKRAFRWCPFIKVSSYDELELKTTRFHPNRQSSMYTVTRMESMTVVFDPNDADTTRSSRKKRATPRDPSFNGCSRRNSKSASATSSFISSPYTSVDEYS
^3H-SB222200 Binding Competition Assay with Human NK-3 Receptor
The ability of the compounds of the invention to inhibit the binding of the NK-3 receptor selective antagonist SB222200 was assessed by an in vitro radioligand binding assay. Membranes were prepared from Chinese hamster ovary recombinant cells which express the human NK3 receptor. The membranes were incubated with 5 nM ^3H-SB222200_(ARC) in a HEPES 25 mM/NaCl 0.1M/CaCl2 1 mM/MgCl2 5 Mm/BSA 0.5%/Saponin 10 μg/ml buffer at pH 7.4 and various concentrations of the compounds of the invention. The amount of tritiated SB222200 bound to the receptor was determined after filtration by the quantification of membrane associated radioactivity using the TopCount-NXT reader (Packard). […] In Table 3 biological results obtained using the ^3H-SB222200 binding competition assay with compounds of the invention are set out in tabulated form. In this table the calculated Ki is given. The Ki value obtained (in accordance with the protocol set forth above) is represented as follows: “+++” means Ki<500 nM; “++” means 500 nM≤Ki≤1 μM; “+” means 1 μM<Ki≤5 μM; “#” means Ki>5 μM.
On to `COc1ccccc1-c1nc(-c2nnc3n2CCN(C(=O)c2ccc(-c4cccs4)cc2)C3)cs1` [Compound 202, (3-(2-(2-methoxyphenyl)thiazol-4-yl)-5,6-dihydro-[1,2,4]triazolo[4,3-a]pyrazin-7(8H)-yl)(4-(thiophen-2-yl)phenyl)methanone], for which the Ki is below 500 nM.

Regarding `CC1CN(c2nc(-c3nnc4n3CCN(C(=O)c3ccc(-c5cccs5)cc3)C4)cs2)C(C)CO1` (stereo not shown) [Compound 261, (3-(2-(2,5-dimethylmorpholino)thiazol-4-yl)-5,6-dihydro-[1,2,4]triazolo[4,3-a]pyrazin-7(8H)-yl)(4-(thiophen-2-yl)phenyl)methanone], the Ki is below 500 nM.

With `O=C(c1ccc(-c2cccs2)cc1)N1CCn2c(nnc2-c2cc(-c3ccccc3)n(CCO)n2)C1` [Compound 285, (3-(1-(2-hydroxyethyl)-5-phenyl-1H-pyrazol-3-yl)-5,6-dihydro-[1,2,4]triazolo[4,3-a]pyrazin-7(8H)-yl)(4-(thiophen-2-yl)phenyl)methanone], the Ki was below 500 nM.

On to `O=C(c1ccc(F)cc1)N1CCn2c(nnc2-c2csc(-c3ccccc3O)n2)C1` [Compound 271, (4-fluorophenyl)(3-(2-(2-hydroxyphenyl)thiazol-4-yl)-5,6-dihydro-[1,2,4]triazolo[4,3-a]pyrazin-7(8H)-yl)methanone], for which the Ki was below 500 nM.

`Cn1nc(-c2nnc3n2CCN(C(=O)c2ccc(-c4cccs4)cc2)C3)cc1-c1ccccc1` [Compound 222, (3-(1-methyl-5-phenyl-1H-pyrazol-3-yl)-5,6-dihydro-[1,2,4]triazolo[4,3-a]pyrazin-7(8H)-yl)(4-(thiophen-2-yl)phenyl)methanone]: the Ki is below 500 nM.

Turning to `C[C@H]1c2nnc(-c3csc(-c4ccccc4)n3)n2CCN1C(=O)c1ccc(F)cc1` [Compound 167, (S)-(4-fluorophenyl)(8-methyl-3-(2-phenylthiazol-4-yl)-5,6-dihydro-[1,2,4]triazolo[4,3-a]pyrazin-7(8H)-yl)methanone], the inhibition constant (Ki) was in the range of 500 to 1000 nM.

`O=C(c1ccc(-c2cccs2)cc1)N1CCn2c(nnc2-c2csc(N3CCCCC3)n2)C1` [Compound 247, (3-(2-(piperidin-1-yl)thiazol-4-yl)-5,6-dihydro-[1,2,4]triazolo[4,3-a]pyrazin-7(8H)-yl)(4-(thiophen-2-yl)phenyl)methanone]: the Ki is below 500 nM.

Consider `O=C(c1ccc(-c2ccccc2)cc1)N1CCn2c(nnc2-c2csc(CS(=O)(=O)c3ccc(Cl)cc3)n2)C1` [Compound 199, [1,1′-biphenyl]-4-yl(3-(2-(((4-chlorophenyl)sulfonyl)methyl)thiazol-4-yl)-5,6-dihydro-[1,2,4]triazolo[4,3-a]pyrazin-7(8H)-yl)methanone], for which the Ki is 1000 to 5000 nM.

With `O=C(c1ccc(F)cc1)N1CCn2c(nnc2-c2csc(-c3ccc(N4CCOCC4)cc3)n2)C1` [Compound 240, (4-fluorophenyl)(3-(2-(4-morpholinophenyl)thiazol-4-yl)-5,6-dihydro-[1,2,4]triazolo[4,3-a]pyrazin-7(8H)-yl)methanone], the Ki lay in the range of 500 to 1000 nM.

As for `O=C(c1ccc(F)cc1)N1CCn2c(nnc2-c2cccc(C(F)(F)F)n2)C1` [Compound 39, (4-fluorophenyl)(3-(6-(trifluoromethyl)pyridin-2-yl)-5,6-dihydro-[1,2,4]triazolo[4,3-a]pyrazin-7(8H)-yl)methanone], the Ki was 500 to 1000 nM.

For `O=C(c1ccc(-c2ccc(F)cc2)cc1)N1CCn2c(nnc2-c2csc(-c3cccs3)n2)C1` [Compound 196, (4′-fluoro-[1,1′-biphenyl]-4-yl)(3-(2-(thiophen-2-yl)thiazol-4-yl)-5,6-dihydro-[1,2,4]triazolo[4,3-a]pyrazin-7(8H)-yl)methanone], the Ki is below 500 nM.

Regarding `CC1c2nnc(-c3nc(-c4ccccc4)no3)n2CCN1C(=O)c1ccc(-c2cccs2)cc1` (stereo not shown) [Compound 85, (8-methyl-3-(3-phenyl-1,2,4-oxadiazol-5-yl)-5,6-dihydro-[1,2,4]triazolo[4,3-a]pyrazin-7(8H)-yl)(4-(thiophen-2-yl)phenyl)methanone], the Ki was below 500 nM.

Consider `CC1CN(c2nc(-c3nnc4n3CCN(C(=O)c3ccc(-c5cccs5)cc3)C4)cs2)CC(C)O1` (stereo not shown) [Compound 265, (3-(2-(2,6-dimethylmorpholino)thiazol-4-yl)-5,6-dihydro-[1,2,4]triazolo[4,3-a]pyrazin-7(8H)-yl)(4-(thiophen-2-yl)phenyl)methanone], for which the Ki was below 500 nM.

As to `Cc1ccsc1-c1ccc(C(=O)N2CCn3c(-c4csc(-c5ccc(F)cc5)n4)nnc3C2C)cc1` (stereo not shown) [Compound 268, (3-(2-(4-fluorophenyl)thiazol-4-yl)-8-methyl-5,6-dihydro-[1,2,4]triazolo[4,3-a]pyrazin-7(8H)-yl)(4-(3-methylthiophen-2-yl)phenyl)methanone], the Ki is below 500 nM.

Turning to `O=C(c1ccc(F)cc1)N1CCn2c(nnc2-c2csc(-c3ccc(F)cc3)n2)C1` [Compound 32, (4-fluorophenyl)(3-(2-(4-fluorophenyl)thiazol-4-yl)-5,6-dihydro-[1,2,4]triazolo[4,3-a]pyrazin-7(8H)-yl)methanone], the Ki is below 500 nM.

As to `O=C(c1ccc(F)cc1)N1CCn2c(nnc2-c2n[nH]c(-c3ccccc3)n2)C1` [Compound 178, (4-fluorophenyl)(3-(5-phenyl-1H-1,2,4-triazol-3-yl)-5,6-dihydro-[1,2,4]triazolo[4,3-a]pyrazin-7(8H)-yl)methanone], the Ki lay within 1000 to 5000 nM.

On to `CC1c2nnc(-c3csc(N4CCOCC4)n3)n2CCN1C(=O)c1ccc(-c2cccs2)cc1` (stereo not shown) [Compound 56, (8-methyl-3-(2-morpholinothiazol-4-yl)-5,6-dihydro-[1,2,4]triazolo[4,3-a]pyrazin-7(8H)-yl)(4-(thiophen-2-yl)phenyl)methanone], for which the Ki was below 500 nM.

For the molecule `Cc1scnc1-c1nnc2n1CCN(C(=O)c1ccc(-c3cccs3)cc1)C2` [Compound 275, (3-(5-methylthiazol-4-yl)-5,6-dihydro-[1,2,4]triazolo[4,3-a]pyrazin-7(8H)-yl)(4-(thiophen-2-yl)phenyl)methanone], the Ki was above 5000 nM.

`O=C(c1ccc(F)cc1)N1CCn2c(nnc2-c2cccc(-c3ccccc3)n2)C1` [Compound 25, (4-fluorophenyl)(3-(6-phenylpyridin-2-yl)-5,6-dihydro-[1,2,4]triazolo[4,3-a]pyrazin-7(8H)-yl)methanone]: the Ki is below 500 nM.

As to `O=C(c1ccc(-c2cccs2)cc1)N1CCn2c(nnc2-c2csc(-c3ccc(F)cc3F)n2)C1` [Compound 170, (3-(2-(2,4-difluorophenyl)thiazol-4-yl)-5,6-dihydro-[1,2,4]triazolo[4,3-a]pyrazin-7(8H)-yl)(4-(thiophen-2-yl)phenyl)methanone], the Ki was below 500 nM.

As to `O=C(c1ccc(-c2ccc(F)cc2)cc1)N1CCn2c(nnc2-c2csc(CS(=O)(=O)c3ccc(Cl)cc3)n2)C1` [Compound 200, (3-(2-(((4-chlorophenyl)sulfonyl)methyl)thiazol-4-yl)-5,6-dihydro-[1,2,4]triazolo[4,3-a]pyrazin-7(8H)-yl)(4′-fluoro-[1,1′-biphenyl]-4-yl)methanone], the Ki was 500 to 1000 nM.

As for `Cn1nc(-c2nnc3n2CCN(C(=O)c2ccc(F)cc2)C3)cc1-c1ccccc1` [Compound 238, (4-fluorophenyl)(3-(1-methyl-5-phenyl-1H-pyrazol-3-yl)-5,6-dihydro-[1,2,4]triazolo[4,3-a]pyrazin-7(8H)-yl)methanone], the Ki was below 500 nM.

For the molecule `CC1(C)CCN(c2nc(-c3nnc4n3CCN(C(=O)c3ccc(-c5cccs5)cc3)C4)cs2)CC1` [Compound 274, (3-(2-(4,4-dimethylpiperidin-1-yl)thiazol-4-yl)-5,6-dihydro-[1,2,4]triazolo[4,3-a]pyrazin-7(8H)-yl)(4-(thiophen-2-yl)phenyl)methanone], the Ki was 500 to 1000 nM.

For `CN(C)c1ccc(C(=O)N2CCn3c(nnc3-c3csc(-c4ccc(F)cc4)n3)C2)cc1` [Compound 253, (4-(dimethylamino)phenyl)(3-(2-(4-fluorophenyl)thiazol-4-yl)-5,6-dihydro-[1,2,4]triazolo[4,3-a]pyrazin-7(8H)-yl)methanone], the Ki fell in the range of 500 to 1000 nM.

As for `O=C(c1ccc(-c2cccs2)cc1)N1CCn2c(nnc2-c2cc(-c3ccccc3)n[nH]2)C1` [Compound 267, (3-(3-phenyl-1H-pyrazol-5-yl)-5,6-dihydro-[1,2,4]triazolo[4,3-a]pyrazin-7(8H)-yl)(4-(thiophen-2-yl)phenyl)methanone], the Ki is below 500 nM.

Turning to `O=C(c1ccc(F)cc1)N1CCn2c(nnc2-c2cccc(N3CCOCC3)n2)C1` [Compound 38, (4-fluorophenyl)(3-(6-morpholinopyridin-2-yl)-5,6-dihydro-[1,2,4]triazolo[4,3-a]pyrazin-7(8H)-yl)methanone], the Ki was below 500 nM.

On to `O=C(c1ccc(-c2cccs2)cc1)N1CCn2c(nnc2-c2csc(N3CCOCC3)n2)C1` [Compound 55, (3-(2-morpholinothiazol-4-yl)-5,6-dihydro-[1,2,4]triazolo[4,3-a]pyrazin-7(8H)-yl)(4-(thiophen-2-yl)phenyl)methanone], for which the Ki was below 500 nM.

Take `CC(C)CC(=O)N1CCn2c(nnc2-c2ccc3ccccc3n2)C1` [Compound 95, 3-methyl-1-(3-(quinolin-2-yl)-5,6-dihydro-[1,2,4]triazolo[4,3-a]pyrazin-7(8H)-yl)butan-1-one]: the inhibition constant Ki lay within 1000 to 5000 nM.
